# According to a melting point compilation (Tetko et al.; mined from patent text by program, amines drawn as free bases though some values may be those of a salt):
row,Structure (SMILES),melting point [°C]
1,O=C1CCN(C(=O)c2cc(C(F)(F)F)cc(C(F)(F)F)c2)C(Cc2ccccc2)C1 (centres undefined),102
2,CCOc1cc(Oc2ccc(S(C)(=O)=O)nc2)cc2cc(C3=NCC(CC(=O)NC)S3)[nH]c12 (centres undefined),224 to 225
3,O=C(O)C(Oc1ccc(F)cc1)c1ccc(Oc2ccc(Cl)cc2)cc1 (centres undefined),106 to 111
4,CCNC(=NS(=O)(=O)c1cccc(Cl)c1)N1CC(C)(C)C=N1,62 to 67
5,c1ccc2nc(C3CCCS3)ccc2c1 (centres undefined),63
6,O=C(C=NO)Nc1ccc(F)c(F)c1,148 to 150
7,COc1ccc(N(C(C)=O)C2=NN(c3ccc([N+](=O)[O-])cc3)C(=O)C2)cc1,165 to 167
8,COC1=C(OC)C(=O)C(CCCCCCCCCCCO)=C(C)C1=O,57
9,ON=Cc1ccccc1-c1ccc2c(c1C=NO)OCO2,227 to 229
10,O=C1C[C@H](O)[C@H](CC2CCCCC2)N1,141 to 143
11,CC(=O)Nc1nsc2ccc(NS(=O)(=O)c3cc(Cl)ccc3Cl)cc12,169 to 172
12,CC(C(=O)NCC(=O)O)C(SC(=O)c1ccccc1)SC(=O)c1ccccc1 (centres undefined),113 to 114
13,CC1(C)SCN(C(=O)[C@@H](O)[C@H](Cc2ccccc2)NC(=O)O[C@H]2CCOC2)[C@@H]1C(=O)N[C@H]1CCCc2ccccc21,103 to 105
14,CC1CCN(c2c(C#N)c3c(c4c2Cc2ccccc2-4)-c2ccccc2C3)CC1,166 to 168
15,COC(Cc1ccc(I)cc1)c1ccc(I)cc1 (centres undefined),62 to 64
16,NCCCCNC(=O)C1(NC(=O)CCCC(=O)O)Cc2ccccc2C1,132
17,COc1cccc(S(=O)(=O)Nc2nccnc2OC)c1Cl,151 to 152
18,CCN(CC)CCc1cccc(Nc2ncc3c(n2)N(c2cccc(C(N)=O)c2)C(=O)N(c2ccc(OC)cc2)C3C)c1 (centres undefined),170 to 175
19,CNc1nc(-c2ccccc2)c(-c2nc3ccccc3c(=O)n2-c2ccccc2Cl)s1,215 to 217
20,O=c1ccoc2cc(OCCCCl)ccc12,72 to 73
21,CCc1cccc(CC(=O)O)c1OCCCc1cn(-c2ccc(Br)cn2)nc1C(CC)CC,123
22,O=C(O)COc1ccc(SCCc2ccc(-c3ccc(C(F)(F)F)cc3)cc2)c2c1CCC2,170 to 172
23,c1ccc(C(CCOc2ccc(Cc3nnn[nH]3)cc2)(c2ccccc2)c2ccccc2)cc1,187 to 189
24,CCOC(=O)CNC(=O)CC(O)CCl (centres undefined),53 to 54
25,CCc1nc2c(C)cc(C)nc2n1Cc1ccc(C(CC(=O)NS(C)(=O)=O)c2ccccc2)cc1 (centres undefined),118 to 123

row,Structure (SMILES),melting point [°C]
1,O=C1O[C@H](O)[C@@H]2[C@H]1[C@@H]1C=C[C@H]2C1,133
2,COC(=O)Cc1ccc(OCCNC(=O)C2Cc3ccccc3N2S(=O)(=O)c2ccc(-c3ccc(F)cc3)c(C(F)(F)F)c2)cc1 (centres undefined),60
3,COC(=O)c1ccc(OC)c(NC(=NCl)c2ccc(Cl)cc2Cl)c1,120
4,CC1(C)CCCN(C(=O)[C@H]2C[C@H](C(=O)O)[C@@H](c3ccccc3F)N2C(=O)CNC(=O)Nc2cccc(CC(=O)O)c2)C1 (racemic),173
5,COC(=O)c1cc(NC(C)=O)c([N+](=O)[O-])cc1C(=O)OC,119 to 120
6,CCSc1ncnc2c(N3CCCCC3)nc(Cl)nc12,110 to 111
7,COc1ccc(C(N2CCN(c3ncccn3)CC2)N2CCCC2=O)cc1 (centres undefined),166 to 170
8,COc1ccc(-c2ccncc2)cc1-c1ccc(Oc2ccccc2)cc1,173 to 218
9,COC(=O)C(Cc1ccccc1)Oc1ccc2cc(CNC(=O)c3ccc(C4CCCCC4)cc3)ccc2c1Br (centres undefined),160 to 161
10,O=C1CCc2ccc(OC/C=C/CN3CCN(c4cccc(Cl)c4Cl)CC3)cc2N1,151 to 152
11,CC(C)(C)[C@H]1CC[C@H](Nc2ncc(CCc3cccnc3)c3ccccc23)CC1,124 to 125
12,O=S(=O)(c1ccc(F)cc1)N1CCCC1c1ccc(C(F)(F)F)cc1 (racemic),114
13,NC(=O)c1nc(CN2CCOCC2)n(-c2ccc(Cl)cc2C(=O)c2ccccc2Cl)n1,165 to 167
14,O=C(O)Cc1c(Cl)nc(-c2cccc(O)c2)n1Cc1ccccc1,220 to 222
15,CCOC(=O)/C=C/C=C/c1ccc(CCc2nc(-c3ccccc3)oc2C)cc1,82 to 83
16,S=C(NCc1cccnc1)c1[nH]c2ccc(Cl)cc2c1-c1ccccc1,240 to 241
17,COC(=O)C(=O)c1ccc(OCCOc2ccc(OC)c(OC)c2)cc1,93 to 94
18,COC(=O)c1ccc(N)c(C(=O)C(=O)OC(=O)C(=O)c2cc(C(=O)OC)ccc2N)c1,256 to 257
19,CC(C)NC(=O)CSCC(=O)c1ccc(-c2ccccc2)cc1,120 to 121
20,CSC1C(OC(C)=O)C(COC(C)=O)OC1n1ccc(=O)[nH]c1=O (centres undefined),132
21,CC1(C)C(C(=O)O)C1C(Br)C(Br)(Br)Br (centres undefined),150
22,COC(=O)c1[nH]c2cc(Cl)ccc2c1-c1ccc(F)cc1,172 to 183
23,O=C(NNc1ccccc1Cl)c1c(F)cccc1Cl,156 to 158
24,Cn1nc(-c2cccs2)n(C)c1=S,128 to 129
